# From paper PMC7730441, “Acetylcholinesterase and butyrylcholinesterase inhibitory activities of khellactone coumarin derivatives isolated from Peucedanum japonicum Thurnberg” (Scientific Reports, 2020)
# Read-outs that look alike come from different tables or passages of the source.
# Legend:
# AChE = details: cited from earlier work
# recombinant human MAO-B = biological target: T1, recombinant human MAO-B (Homo sapiens, UniProt P27338); assay: MAO-B inhibition assay (benzylamine); assay type: biochemical; details: for remaining activity at 10 µM: read-out: Residual activity at 10 µM (%) MAO-B
# T1 construct: purchased Sigma-Aldrich
# T1 sequence (P27338 1-520): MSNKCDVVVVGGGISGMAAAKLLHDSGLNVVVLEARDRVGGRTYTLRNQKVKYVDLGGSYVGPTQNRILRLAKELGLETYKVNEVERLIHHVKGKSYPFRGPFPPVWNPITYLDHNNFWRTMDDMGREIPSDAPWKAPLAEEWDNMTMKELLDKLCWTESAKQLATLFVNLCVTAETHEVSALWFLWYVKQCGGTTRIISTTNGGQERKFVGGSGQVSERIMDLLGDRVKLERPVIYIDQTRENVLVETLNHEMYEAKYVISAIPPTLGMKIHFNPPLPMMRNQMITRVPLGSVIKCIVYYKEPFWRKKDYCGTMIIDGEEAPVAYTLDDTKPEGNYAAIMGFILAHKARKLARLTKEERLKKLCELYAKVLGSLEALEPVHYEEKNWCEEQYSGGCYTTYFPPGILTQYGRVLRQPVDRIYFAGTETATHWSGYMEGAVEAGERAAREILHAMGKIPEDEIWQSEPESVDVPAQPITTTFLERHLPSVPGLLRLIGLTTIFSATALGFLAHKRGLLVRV
# Description: (§1) AChE assays were performed as described by Ellman et al.[41] with slight modifications. […] DTNB was used for color development, caused by reaction between it and thiocholine (a product of AChE). For inhibitory assays, compounds were preincubated with AChE for 15 min prior to ATCI and DTNB addition. BChE activity was assayed using the same method, but BTCI was used instead of ATCI.
# (§2) Inhibitions of the activities of AChE, BChE, MAO-A, and MAO-B by the 15 compounds were investigated at an inhibitor concentration of 10 µM. IC50 values were also determined. […] The inhibition types and Ki values were determined using Lineweaver–Burk Plots and secondary plots.
# recombinant human MAO-A = biological target: T2, recombinant human MAO-A (Homo sapiens, UniProt P21397); assay: MAO-A inhibition assay (kynuramine); assay type: biochemical; details: for remaining activity at 10 µM: read-out: Residual activity at 10 µM (%) MAO-A
# T2 construct: purchased Sigma-Aldrich
# T2 sequence (P21397 1-527): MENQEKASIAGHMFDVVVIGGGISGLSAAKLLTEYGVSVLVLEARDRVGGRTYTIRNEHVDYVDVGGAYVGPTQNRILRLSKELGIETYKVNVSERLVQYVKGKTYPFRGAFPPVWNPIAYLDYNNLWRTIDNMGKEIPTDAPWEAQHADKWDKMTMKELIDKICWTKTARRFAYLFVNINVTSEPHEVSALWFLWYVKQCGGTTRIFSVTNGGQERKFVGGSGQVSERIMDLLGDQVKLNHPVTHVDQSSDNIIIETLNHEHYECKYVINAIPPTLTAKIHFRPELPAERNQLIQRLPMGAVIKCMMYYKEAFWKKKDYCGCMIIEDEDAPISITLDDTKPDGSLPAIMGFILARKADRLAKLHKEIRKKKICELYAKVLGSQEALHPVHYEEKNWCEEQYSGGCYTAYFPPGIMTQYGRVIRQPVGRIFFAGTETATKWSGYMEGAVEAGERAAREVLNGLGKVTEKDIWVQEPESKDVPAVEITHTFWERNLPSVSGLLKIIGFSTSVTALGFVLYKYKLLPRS
# Description: as §1, §2
# BChE (from equine serum) = biological target: T3, BChE (from equine serum) (Equus caballus, UniProt P81908); assay: biochemical; details: 15 min preincubation
# T3 construct: BChE (from equine serum); purchased Sigma-Aldrich; host or cells: equine serum
# Description: as §1, §2
# [1] = biological target: T4, AChE (Type VI-S; from Electrophorus electricus) (Electrophorus electricus, UniProt O42275); assay: biochemical; details: for remaining activity at 10 µM: read-out: Residual activity at 10 µM (%) AChE, inhibitor 10 µM; for SI = IC50 of AChE/ IC50 of BChE: selectivity index
# T4 construct: AChE (Type VI-S; from Electrophorus electricus); purchased Sigma-Aldrich Type VI-S (catalogue number not given)
# Description: as §1, §2
# BChE = details: cited from earlier work
# [2] = 15 min preincubation, read-out: IC50 (µM) AChE
# [3] = verbascosides from Harpagophytum procumbens
# [4] = flavonoids from Agrimonia pilosa
# T4 sequence (O42275 24-633): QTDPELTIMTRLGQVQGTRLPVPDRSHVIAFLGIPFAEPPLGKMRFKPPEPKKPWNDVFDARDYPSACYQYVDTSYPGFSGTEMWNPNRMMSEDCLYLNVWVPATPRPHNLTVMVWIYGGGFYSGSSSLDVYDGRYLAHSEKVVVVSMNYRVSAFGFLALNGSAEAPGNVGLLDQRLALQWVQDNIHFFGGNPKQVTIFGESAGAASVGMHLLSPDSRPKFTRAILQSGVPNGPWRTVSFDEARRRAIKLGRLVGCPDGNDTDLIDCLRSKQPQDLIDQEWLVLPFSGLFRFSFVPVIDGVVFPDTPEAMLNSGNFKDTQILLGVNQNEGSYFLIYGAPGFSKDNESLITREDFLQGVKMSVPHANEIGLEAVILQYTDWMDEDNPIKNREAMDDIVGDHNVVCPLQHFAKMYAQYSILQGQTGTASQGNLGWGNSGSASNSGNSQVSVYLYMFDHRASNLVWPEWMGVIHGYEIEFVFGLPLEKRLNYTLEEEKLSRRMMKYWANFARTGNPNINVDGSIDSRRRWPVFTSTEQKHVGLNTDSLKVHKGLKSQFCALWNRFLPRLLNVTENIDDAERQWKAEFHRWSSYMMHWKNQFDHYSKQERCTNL
# T3 sequence (P81908 whole entry): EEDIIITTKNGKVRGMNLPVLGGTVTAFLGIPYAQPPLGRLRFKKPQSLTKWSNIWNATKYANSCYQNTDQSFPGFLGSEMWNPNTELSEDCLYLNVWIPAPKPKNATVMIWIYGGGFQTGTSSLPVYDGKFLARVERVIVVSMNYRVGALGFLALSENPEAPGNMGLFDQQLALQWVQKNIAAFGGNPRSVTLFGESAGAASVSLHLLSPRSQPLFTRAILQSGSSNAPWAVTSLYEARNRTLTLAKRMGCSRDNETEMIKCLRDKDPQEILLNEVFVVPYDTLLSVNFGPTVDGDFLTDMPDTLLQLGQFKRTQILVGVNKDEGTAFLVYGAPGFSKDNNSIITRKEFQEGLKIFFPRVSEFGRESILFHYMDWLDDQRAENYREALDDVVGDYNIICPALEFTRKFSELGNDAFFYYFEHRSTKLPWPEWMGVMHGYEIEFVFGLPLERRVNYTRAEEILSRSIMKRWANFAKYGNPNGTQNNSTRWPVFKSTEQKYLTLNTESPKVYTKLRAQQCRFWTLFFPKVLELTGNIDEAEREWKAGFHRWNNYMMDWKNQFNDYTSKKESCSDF
Molecule,remaining activity at 10 µM (recombinant human MAO-B; inhibitor 10 µM),remaining activity at 10 µM (recombinant human MAO-A; inhibitor 10 µM),IC50 (BChE (from equine serum); read-out: IC50 (µM) BChE),"IC50 [1, 2]",remaining activity at 10 µM ([1]; 15 min preincubation),also measured
COc1cc2ccc(=O)oc2cc1O [scopoletin],–,–,–,–,–,IC50 (AChE; from Vaccinium oldhami Miquel): 52 µM
"CC(=O)O[C@@H]1[C@H](OC(=O)C=C(C)C)c2c(ccc3ccc(=O)oc23)OC1(C)C [PJ1, Isosamidin]",85 ± 0.57%,86 ± 5.47%,> 40 µM,> 40 µM,92.1 ± 1.7%,–
C[C@@H]1O[C@@H](O[C@@H]2[C@@H](O)[C@H](OCCc3ccc(O)c(O)c3)O[C@H](CO)[C@H]2O)[C@H](O)[C@H](O)[C@H]1O [decaffeoylverbascoside],–,–,–,–,–,IC50 (AChE; [3]): 16.1 µM
C[C@@H]1O[C@@H](O[C@@H]2[C@@H](O)[C@H](OCCc3ccc(O)c(O)c3)O[C@H](COC(=O)/C=C/c3ccc(O)c(O)c3)[C@H]2O)[C@H](O)[C@H](O)[C@H]1O [isoacteoside],–,–,–,–,–,IC50 (BChE; from H. procumbens): 29.7 µM
O=c1ccc2ccc(O)c(O)c2o1 [daphnetin],–,–,–,–,–,IC50 (BChE): 8.66 µM; IC50 (AChE; from Artemisia capillaris): 11.6 µM
CCC(C)C(=O)c1c(O)c2c(c3c(-c4ccccc4)cc(=O)oc13)OC(C)(CCC=C(C)C)C=C2 (stereo not drawn) [mesuagenin B],–,–,–,–,–,IC50 (AChE; from Mesua elegans): 0.7 µM
"CC(C)=CC(=O)O[C@@H]1c2c(ccc3ccc(=O)oc23)OC(C)(C)[C@@H]1OC(=O)CC(C)C [PJ9, 3′-isovaleryl-4′-senecioylkhellactone]",75 ± 8.42%,80.6 ± 5.02%,12.5 ± 2.82 µM,36.1 ± 0.66 µM,86.9 ± 9.92%,SI = IC50 of AChE/ IC50 of BChE [1]: 2.89
"CC(C)=CC(=O)O[C@@H]1c2c(ccc3ccc(=O)oc23)OC(C)(C)[C@@H]1OC(=O)C=C(C)C [PJ4, 3′,4′-disenecioylkhellactone]",95.6 ± 4.8%,100.3 ± 0.39%,10.7 µM,21.3 ± 7.69 µM,85.4 ± 7.52%,SI = IC50 of AChE/ IC50 of BChE [1]: 1.99
O=c1ccc2cc(O)c(O)cc2o1 [esculetin],–,–,–,–,–,IC50 (BChE): 9.29 µM; IC50 (AChE; from Artemisia capillaris): 6.13 µM
"COc1cc2oc(-c3ccc(O)cc3)cc(=O)c2c(O)c1[C@@H]1O[C@H](CO)[C@@H](O)[C@H](O)[C@H]1O [swertisin, isovitexin-7-O-methyl ether]",–,–,–,–,–,"IC50 (AChE; converted from µg/mL, from Anthocleista vogelii): 71.9 µM; IC50 AChE (AChE; from Anthocleista vogelii): 32.09 µg/mL"
"CCC(C)C(=O)O[C@@H]1c2c(ccc3ccc(=O)oc23)OC(C)(C)[C@@H]1OC(=O)C=C(C)C (stereo partly drawn) [PJ10, 3′-senecioyl-4′-(2-methylbutyryl)khellactone]",70.9 ± 2.61%,92.1 ± 5.58%,10.2 µM,> 40 µM,86.4 ± 5.23%,SI = IC50 of AChE/ IC50 of BChE [1]: > 3.92
CC1(C)Oc2cc3oc(=O)ccc3cc2C[C@@H]1O [decursinol],–,–,–,–,–,IC50 (AChE; from Angelica gigas Nakai): 28 µM
O=C(/C=C/c1ccc(O)cc1)OC[C@H]1O[C@@H](Oc2c(-c3ccc(O)cc3)oc3cc(O)cc(O)c3c2=O)[C@H](O)[C@@H](O)[C@@H]1O [tiliroside],–,–,–,–,–,IC50 (AChE; [4]): 23.5 µM
C/C=C(/C)C(=O)O[C@@H]1c2c(ccc3ccc(=O)oc23)OC(C)(C)[C@@H]1OC(=O)C(C)CC (stereo partly drawn) [PJ12],72.4 ± 3.7%,78.9 ± 3.98%,> 40 µM,29 ± 1.15 µM,58.3 ± 5.37%,SI = IC50 of AChE/ IC50 of BChE [1]: < 0.73
CC1=C2OCC(C)c3ccc(C)c(c32)C(=O)C1=O (stereo not drawn) [mansonone E],–,–,–,–,–,IC50 (AChE; from Mansonia gagei): 23.5 µM

Molecule,remaining activity at 10 µM (recombinant human MAO-B; inhibitor 10 µM),remaining activity at 10 µM (recombinant human MAO-A; inhibitor 10 µM),IC50 (BChE (from equine serum); read-out: IC50 (µM) BChE),"IC50 [1, 2]",remaining activity at 10 µM ([1]; 15 min preincubation),also measured
corenone B,–,–,–,–,–,"IC50 (BChE; converted from μg/mL, from Niphogeton dissecta): 49.5 µM; IC50 BChE (BChE; from Niphogeton dissecta): 10.9 µg/mL"
COc1ccc(CCCc2ccc(O)cc2)c(O)c1 [broussonin A],–,–,–,–,–,IC50 (BChE; from Anemarrhena asphodeloidesa): 7.5 µM
"C/C=C(/C)C(=O)O[C@@H]1[C@H](OC(=O)C=C(C)C)c2c(ccc3ccc(=O)oc23)OC1(C)C [PJ6, calipteryxin]",63.1 ± 2.75%,86.1 ± 1.93%,> 40 µM,25.6 ± 4.5 µM,76.3 ± 6.46%,SI = IC50 of AChE/ IC50 of BChE [1]: < 0.64
C/C=C(/C)C(=O)O[C@H]1[C@H](O)c2cc3ccc(=O)oc3cc2OC1(C)C [4′-hydroxy Pd–C-III],–,–,–,–,–,IC50 (BChE; from A. decursiva): 5.78 µM; IC50 (AChE; from Angelica decursiva): 1.09 µM
"C/C=C(/C)C(=O)OC1c2c(ccc3ccc(=O)oc23)OC(C)(C)C1OC(=O)CC(C)C (stereo not drawn) [PJ11, 3′-isovaleryl-4′-angeloylkhellactone]",89.1 ± 1.36%,75.4 ± 0.3%,> 40 µM,> 40 µM,88.1 ± 1.35%,–
COc1ccc2c(c1OC)CN1CCc3cc4c(cc3C1=C2)OCO4 [dihydroberberine],–,–,–,–,–,IC50 (AChE): 1.18 µM
Pteryxin [PJ2],–,–,–,–,–,"IC50 (BChE; converted from μg/mL, from M. purpurea): 33.5 µM; IC50 BChE (BChE; from M. purpurea): 12.96 µg/mL; Residual activity at 10 µM (%) MAO-B (recombinant human MAO-B; inhibitor 10 µM): 79.7 ± 3.47%; Residual activity at 10 µM (%) MAO-A (recombinant human MAO-A; inhibitor 10 µM): 85.4 ± 3.80%; Residual activity at 10 µM (%) BChE (BChE (from equine serum); inhibitor 10 µM): 87.6 ± 7.14%; Residual activity at 10 µM (%) AChE ([1]; inhibitor 10 µM, 15 min preincubation): 73.4 ± 11.3%"
C[C@@H]1O[C@@H](O[C@@H]2[C@@H](O)[C@H](OCCc3ccc(O)c(O)c3)O[C@H](CO)[C@H]2OC(=O)/C=C/c2ccc(O)c(O)c2)[C@H](O)[C@H](O)[C@H]1O [acteoside],–,–,–,–,–,IC50 (AChE; [3]): 19.9 µM
O=c1c(O)c(-c2ccc(O)cc2)oc2cc(O)cc(O)c12 [kaempferol],–,–,–,–,–,IC50 (BChE; from Cleistocalyx operculatus): 62.5 µM
COC(C)(C)[C@H](O)CCC(C)=CCOc1c2ccoc2cc2oc(=O)ccc12 [(R)-( +)-6′-hydroxy-7′-methoxybergamottin],–,–,–,–,–,IC50 (AChE; from Citrus hystrix): 11.2 µM
"C/C=C(/C)C(=O)O[C@@H]1c2c(ccc3ccc(=O)oc23)OC(C)(C)[C@@H]1OC(=O)/C(C)=C\C [PJ7, anomalin]",–,–,–,–,75.4 ± 5.72%,remaining activity at 10 µM (recombinant human MAO-B): 73.8 ± 8.23%; remaining activity at 10 µM (recombinant human MAO-A): 74 ± 1.16%; IC50 (BChE (from equine serum); IC50 (µM) BChE): > 40 µM; IC50 [1]: 17.9 ± 5.59 µM; SI = IC50 of AChE/ IC50 of BChE [1]: < 0.45
"CCC(C)C(=O)O[C@@H]1c2c(ccc3ccc(=O)oc23)OC(C)(C)[C@@H]1OC(C)=O (stereo partly drawn) [PJ3, hyuganin]",83.7 ± 2.33%,81.2 ± 3.68%,> 40 µM,> 40 µM,97.2 ± 8.3%,–
"CC(C)=CC(=O)O[C@@H]1[C@H](OC(=O)CC(C)C)c2c(ccc3ccc(=O)oc23)OC1(C)C [PJ8, 3′-senecioyl-4′-isovalerylkhellactone]",68.5 ± 2.1%,79.5 ± 2.05%,> 40 µM,31.6 ± 4.4 µM,97 ± 1.4%,SI = IC50 of AChE/ IC50 of BChE [1]: < 0.79
CCC(C)C(=O)O[C@@H]1c2c(ccc3ccc(=O)oc23)OC(C)(C)[C@@H]1OC(C)=O (stereo partly drawn) [hyuganin C],–,–,–,–,–,IC50 (BChE; from Mutellina purpurea): 38.9 µM
"CC(C)CC(=O)O[C@@H]1c2c(ccc3ccc(=O)oc23)OC(C)(C)[C@@H]1OC(=O)CC(C)C [PJ14, 3′,4′-diisovalerylkhellactone]",66.1 ± 5.23%,77 ± 5.4%,> 40 µM,28.1 ± 0.33 µM,51.5 ± 4.5%,SI = IC50 of AChE/ IC50 of BChE [1]: < 0.70
